Results: patent US10351500B2, “Method of using of dihydro-resveratrol or its stilbenoid derivatives and/or chemical variants as antimicrobial agents” (Hong Kong Baptist University, priority 2015, dated 2019)

Tests used:
[1] = tested on: pancreatic acinar cells; type: cell-based; details: rat, 24 h
Procedure: Functional intact acini were dissociated from pancreatic tissue using collagenase digestion with mild shearing forces. Acini were cultured in Dulbecco's modification of Eagle's medium (GIBCO) supplemented with 5% fetal bovine serum (GIBCO), 1% penicillin-streptomycin (GIBCO) in a 5% CO2, 95% air humidified atmosphere at 37° C. […] MTT reagent was added to the cells at the end of the 24-hour treatment period. After a 3-hour reaction time, MTT products were dissolved in DMSO and absorbance at 570 nm was taken.

[2] = tested on: skin color at the arms of individual human subjects; experiment: skin colorimeter ITA° measurement after topical stilbenoid solution; type: in vivo
Procedure: To determine the skin color of the individual human subjects, the initial skin conditions at the arms of the individuals are tested by the skin colorimeter MPA 5 on day 0. The individual typology angle (ITA°) is calculated by the colorimeter based on the luminance (L*) and yellow-blue component (b*) values. The greater the ITA° value, the greater the skin whiteness [S. Del Bino and F. Bernerd. Variations in skin colour and the biological consequences of ultraviolet radiation exposure. British Journal of Dermatology 2013; 169 (Suppl. 3), 33-40]. In fact, skin colors are classified into 6 major divisions: very light, light, intermediate, tan, brown and dark as listed in Table 4. Two areas (2 cm×2 cm each) are selected as treated areas whereas regions surrounding the treated areas on the arms are regarded as control areas. A volume of 200 μL of the testing stilbenoids (2% by weight dissolved in ethanol) is applied to the designated area twice a day, day and night. At the end of the first week (day 7), individuals are tested with the skin colorimeter for recording the data about using the stilbenoids for 7 days. Again, at the end of the second week (day 14), individuals are tested with the skin colorimeter for recording the data about using the stilbenoids for 14 days.

[3] = tested on: Trichophyton mentagrophytes; experiment: anti-fungal growth inhibition, T. mentagrophytes; type: cell-based; details: T. mentagraphytes; for inhibition at 25 µM / inhibition at 50 µM / inhibition at 100 µM: Trichophyton mentagrophytes, 168 h, one week, 30° C., OD 510 nm; for inhibition at 25 µM: read-out: Inhibition rate (25 μM); for inhibition at 50 µM: read-out: Inhibition rate (50 μM); for inhibition at 100 µM: read-out: Inhibition rate (100 μM)
Procedure: (§1) Evaluation of anti-fungal activity. In a single well of the 96-well microplate, 10 μL of the testing compound is added into 190 μL of growth medium (Difco™ YM) containing an overnight culture of Trichophyton rubrum or Trichophyton mentagrophytes at a density of approximately 5×10^5 CFU. The testing compounds include dihydro-resveratrol and DR1 to DR11. Wells incubated with 10 μL 0.5% DMSO only (i.e. no testing compound) are served as the experimental control of fungal growth whilst those incubated with growth medium only (i.e. no fungi) are served as the negative control. […] The percentage of growth inhibition of T. mentagrophytes by the different concentrations of testing compounds is shown in Table 10 whilst the percentage of growth inhibition of T. rubrum is shown in Table 11. The images of T. mentagrophytes culture are captured post treatment of dihydro-resveratrol (100 μM) and DR8 (100 μM) when compared to the growth of experimental control and negative control (FIG. 30).

[4] = tested on: Trichophyton rubrum; experiment: anti-fungal growth inhibition, T. rubrum; type: cell-based; details: T. rubrum; for inhibition at 25 µM / inhibition at 50 µM / inhibition at 100 µM: Trichophyton rubrum, 168 h, one week, 30° C., OD 510 nm; for inhibition at 25 µM: read-out: Inhibition rate (25 μM); for inhibition at 50 µM: read-out: Inhibition rate (50 μM); for inhibition at 100 µM: read-out: Inhibition rate (100 μM)
Procedure: as §1

[5] = tested on: Streptococcus mutans; experiment: anti-bacterial growth inhibition, S. mutans; type: cell-based; details: S. mutans; for inhibition at 25 µM / inhibition at 50 µM / inhibition at 100 µM: Streptococcus mutans, 10 hours, 30° C., OD 600 nm; for inhibition at 25 µM: read-out: Inhibition rate (25 μM); for inhibition at 50 µM: read-out: Inhibition rate (50 μM); for inhibition at 100 µM: read-out: Inhibition rate (100 μM)
Procedure: (§2) Evaluation of anti-bacterial activity. In a single well of the 96-well microplate, 10 μL of the testing compound is added into 190 μL of growth medium growth medium (BBL™ Brain Heart Infusion) containing an overnight culture of Streptococcus mutans or Streptococcus sobrinus at a density of approximately 5×10^5 CFU. The testing compounds include dihydro-resveratrol and DR1 to DR11. Wells incubated with 10 μL 0.5% DMSO only (i.e. no testing compound) are served as the experimental control of bacterial growth whilst those incubated with growth medium only (i.e. no bacteria) are served as the negative control. […] The percentage of growth inhibition of S. mutans by the different concentrations of testing compounds is shown in Table 12 whereas the percentage of growth inhibition of S. sobrinus is shown in Table 13. The images of S. mutans culture are captured post treatment of dihydro-resveratrol (100 μM) and DR8 (100 μM) when compared to the growth of experimental control and negative control (FIG. 31).

[6] = tested on: Streptococcus sobrinus; experiment: anti-bacterial growth inhibition, S. sobrinus; type: cell-based; details: S. sobrinus; for inhibition at 25 µM / inhibition at 50 µM / inhibition at 100 µM: Streptococcus sobrinus, 10 hours, 30° C., OD 600 nm; for inhibition at 25 µM: read-out: Inhibition rate (25 μM); for inhibition at 50 µM: read-out: Inhibition rate (50 μM); for inhibition at 100 µM: read-out: Inhibition rate (100 μM)
Procedure: as §2

[7] = ABTS radical decolorization assay (antioxidant capacity); type: biochemical; details: 15 min, 734 nm

Structure (SMILES) | inhibition at 25 µM [3] [%] | inhibition at 50 µM [3] [%] | inhibition at 100 µM [3] [%] | inhibition at 25 µM [4] [%] | inhibition at 50 µM [4] [%] | inhibition at 100 µM [4] [%] | inhibition at 25 µM [5] [%] | inhibition at 50 µM [5] [%] | inhibition at 100 µM [5] [%] | inhibition at 25 µM [6] [%] | inhibition at 50 µM [6] [%] | inhibition at 100 µM [6] [%] | Trolox equivalent (mg), antioxidant capacity [7] [mg] | further results
Oc1ccc(/C=C/c2cc(O)cc(O)c2)cc1 [Trans-resveratrol, trans-resveratrol, reference compound] | 5.35 | 13.9 | 32.4 | 6.56 | 11.6 | 21.6 | 8.91 | 5.77 | 3.83 | 6.71 | 1.17 | 2.46 |  | cytotoxicity (MTT, mitochondrial metabolic rates) [1]: roughly 250 μM; whitening effect on skin ([2]; 2% by weight in ethanol, topical twice a day, most individuals): Overt whitening effect; ITA° measurement ([2]; Individual No. 1, day 7, 2% solution topical): 47.7 ± 1.155 °; ITA° measurement ([2]; Individual No. 1, day 14, 2% solution topical): 46.4 ± 0.548 °; ITA° measurement ([2]; Individual No. 2, day 7, 2% solution topical): 39.2 ± 2.564 °; ITA° measurement ([2]; Individual No. 2, day 14, 2% solution topical): 44.8 ± 2.871 °; ITA° measurement ([2]; Individual No. 3, day 7, 2% solution topical): 38.0 ± 1.732 °; ITA° measurement ([2]; Individual No. 3, day 14, 2% solution topical): 36.2 ± 1.789 °; ITA° measurement ([2]; Individual No. 4, day 7, 2% solution topical): 22.4 ± 1.715 °; ITA° measurement ([2]; Individual No. 4, day 14, 2% solution topical): 29.4 ± 1.342 °; ITA° measurement ([2]; Individual No. 5, day 7, 2% solution topical): 26.6 ± 1.159 °; ITA° measurement ([2]; Individual No. 5, day 14, 2% solution topical): 34.0 ± 2.168 °; ITA° measurement ([2]; Individual No. 6, day 7, 2% solution topical): 28.2 ± 2.718 °; ITA° measurement ([2]; Individual No. 6, day 14, 2% solution topical): 41.8 ± 3.372 °; ITA° measurement ([2]; Individual No. 7, day 7, 2% solution topical): 20.6 ± 1.140 °; ITA° measurement ([2]; Individual No. 7, day 14, 2% solution topical): 20.4 ± 0.578 °; ITA° measurement ([2]; Individual No. 8, day 7, 2% solution topical): 14.0 ± 1.232 °; ITA° measurement ([2]; Individual No. 8, day 14, 2% solution topical): 9.6 ± 1.342 °; ITA° measurement ([2]; Individual No. 9, day 7, 2% solution topical): −7.2 ± 1.789 °; ITA° measurement ([2]; Individual No. 9, day 14, 2% solution topical): −7.4 ± 1.140 °
CCOC(=O)COc1ccc(CCc2cc(OCC(=O)OCC)cc(OCC(=O)OCC)c2)cc1 [DR1] | 4.33 | 11.2 | 36.4 | 3.25 | 1.15 | 22.6 | 2.31 | 8.55 | 4.78 | 9.96 | 27.7 | 14.2 | 105.736 | 
C=CC(=O)Oc1ccc(CCc2cc(OC(=O)C=C)cc(OC(=O)C=C)c2)cc1 [DR8] | 83.1 | 80.7 | 78.8 | 78.9 | 77.8 | 77.7 | 17.1 | 17.6 | 68 | 22.7 | 43.8 | 79.3 | 15.893 | inhibitory effect among the testing compounds ([3]; one-week incubation): highest inhibitory effect; inhibitory effect among the testing compounds ([4]; one-week incubation): highest inhibitory effect; inhibitory effect among the testing compounds ([5]; 10-hour incubation): highest inhibitory effect; inhibitory effect among the testing compounds ([6]; 10-hour incubation): highest inhibitory effect
CCCOc1ccc(CCc2cc(OCCC)cc(OCCC)c2)cc1 [DR2] | 4.72 | 9.81 | 33.7 | 14.1 | 18.3 | 37.8 | 0.04 | 3.62 | 3.65 | 6.33 | 19.9 | 19 | 30.178 | 
